Reference: patent US7622581B2, “6,7,8,9-substituted 1-phenyl-1,5-dihydro-pyrido[3,2-b]indol-2-ones useful as anti-infective pharmaceutical agents” (Tibotec Pharmaceuticals Ltd., priority 2004, dated 2009)

System: HIV
Experiment: Cellular assay: anti-viral activity in HIV-infected MT4 cells (MTT viability)
Type: cell-based
Settings: Human immunodeficiency virus 1, 120 h, five days incubation, MTT readout, negative logarithm of EC50 (protection of 50% of cells from cytopathogenic effect of the virus)
Experimental: The compounds of the present invention were examined for anti-viral activity in a cellular assay, which was performed according to the following procedure.
HIV- or mock-infected MT4 cells were incubated for five days in the presence of various concentrations of the inhibitor. At the end of the incubation period, the replicating virus in the control cultures has killed all HIV-infected cells in the absence of any inhibitor. Cell viability was determined by measuring the concentration of MTT, a yellow, water soluble tetrazolium dye that is converted to a purple, water insoluble formazan in the mitochondria of living cells only. Upon solubilization of the resulting formazan crystals with isopropanol, the absorbance of the solution was monitored at 540 nm. The values correlate directly to the number of living cells remaining in the culture at the completion of the five day incubation. The inhibitory activity of the compound was monitored on the virus-infected cells and was expressed as EC50 and EC90. These values represent the amount of the compound required to protect 50% and 90%, respectively, of the cells from the cytopathogenic effect of the virus. The toxicity of the compound was measured on the mock-infected cells and was expressed as CC50, which represents the concentration of compound required to inhibit the growth of the cells by 50%. The selectivity index (SI) (ratio CC50/EC50) is an indication of the selectivity of the anti-HIV activity of the inhibitor. Wherever results are reported as e.g. pEC50 or pCC50 values, the result is expressed as the negative logarithm of the result expressed as EC50 or CC50 respectively.

Row | EC50 [nM] | Structure (SMILES)
1 | 2510 | Cn1c2ccc(N3CCOCC3)cc2c2c1cc(C#N)c(=O)n2-c1ccc([N+](=O)[O-])cc1 [Compound 3, 8-morpholin-5-methyl-1-(4-nitro-phenyl)-2-oxo-2,5-dihydro-1H-pyrido[3,2-b]indole-3-carbonitrile]
2 | 316 | CN1CCN(c2ccc3c(c2)c2c(cc(C#N)c(=O)n2-c2ccc([N+](=O)[O-])cc2)n3C)CC1 [Compound 4]
3 | 158 | CN(C)CCCN(C)c1ccc2c(c1)c1c(cc(C#N)c(=O)n1-c1ccc([N+](=O)[O-])cc1)n2C [Compound 7, 8-[(3-Dimethylamino-propyl)-methylamino]-5-methyl-1-(4-nitro-phenyl)-2-oxo-2,5-dihydro-1H-pyrido[3,2-b]indole-3-carbonitrile]
4 | 20000 | Cn1c2ccc(N)cc2c2c1cc(C#N)c(=O)n2-c1ccc([N+](=O)[O-])cc1 [Compound 8]
5 | 15800 | COC(=O)c1ccc2c(c1)c1c(cc(C#N)c(=O)n1-c1ccc(N)cc1)n2C [Compound 9]
6 | 2000 | COC(=O)c1ccc2c(c1)c1c(cc(C#N)c(=O)n1-c1ccc([N+](=O)[O-])cc1)n2C [Compound 12]
7 | 398 | Cn1c2cc(F)c(F)cc2c2c1cc(C#N)c(=O)n2-c1ccc([N+](=O)[O-])cc1 [Compound 15]
8 | 3980 | COc1cc2c(cc1F)c1c(cc(C#N)c(=O)n1-c1ccc([N+](=O)[O-])cc1)n2C [Compound 16]
9 | 251 | CN(C)CCCOc1ccc2c(c1)c1c(cc(C#N)c(=O)n1-c1ccc([N+](=O)[O-])cc1)n2C [Compound 18, 8-[(3-Dimethylamino-propyl)-oxy]-5-methyl-1-(4-nitro-phenyl)-2-oxo-2,5-dihydro-1H-pyrido[3,2-b]indole-3-carbonitrile]
10 | 15800 | Cc1ccc2c(c1)c1c(cc(C#N)c(=O)n1-c1ccc([N+](=O)[O-])cc1)n2C [Compound 26]
11 | 79.4 | COc1ccc2c(c1)c1c(cc(C#N)c(=O)n1-c1ccc([N+](=O)[O-])cc1)n2C [Compound 27, 8-methoxy-5-methyl-1-(4-nitro-phenyl)-2-oxo-2,5-dihydro-1H-pyrido[3,2-b]indole-3-carbonitrile]
12 | 2510 | N#Cc1cc2[nH]c3cc(F)c(F)cc3c2n(-c2ccc([N+](=O)[O-])cc2)c1=O [Compound 28]
13 | 200 | Cn1c2ccc(O)cc2c2c1cc(C#N)c(=O)n2-c1ccc([N+](=O)[O-])cc1 [Compound 29, 8-hydroxy-5-methyl-1-(4-nitro-phenyl)-2-oxo-2,5-dihydro-1H-pyrido[3,2-b]indole-3-carbonitrile]
14 | 1260 | Cn1c2cc(O)ccc2c2c1cc(C#N)c(=O)n2-c1ccc([N+](=O)[O-])cc1 [Compound 32]
